{"source": "patent US12600725B2", "about": "(Memorial Sloan-Kettering Cancer Center, priority 2013, dated 2026)", "key": {"97 kinases": {"tested_on": "97 kinases", "assay": "Kinase screen (Discoverx scanEDGE / KINOMEscan)", "type": "binding", "details": "tested at 10 uM"}, "NCI-N87 cells": {"tested_on": "NCI-N87 cells", "assay": "Cell viability assessment (CellTiter-Glo)", "type": "cell-based"}, "[1]": {"tested_on": "HER2-overexpressing breast cancer cells", "assay": "Cell cycle, PARP cleavage, apoptosis and Hsp70 induction in HER2-overexpressing breast cancer cells", "type": "cell-based"}, "OE19 cells": {"tested_on": "OE19 cells", "assay": "Cell viability assessment (CellTiter-Glo)", "type": "cell-based"}, "HEK293 cells": {"tested_on": "HEK293 cells", "assay": "Toxicity to HEK293 cells", "type": "cell-based, human"}, "[2]": {"tested_on": "Hsp70 induction and AKT degradation (cytosolic Hsp90 hallmarks) in C2C12 cells", "assay": "Western blot of Hsp70 induction and AKT degradation in C2C12 cells", "type": "cell-based, mouse", "details": "24 hrs", "description": "Cell fractionation and immunoblotting. Cells were either treated with DMSO (vehicle) or indicated compounds for 24 hr and lysed in RIPA buffer (50 mM Tris-HCl, pH 7.4, 150 mM NaCl, 0.5% sodium deoxycholate and 0.5% NP40) supplemented with cocktail protease inhibitors (Roche) to produce whole cell lysates. Lysates for cytosol and membrane fractions were harvested using ProteoExtract Subcellular Proteome Extraction Kit (Calbiochem) following the manufacturer's instructions. Protein concentrations were determined using BCA kit (Pierce) according to the manufacturer's instructions. […] After washing off the excess antibodies, the membranes were incubated with the corresponding horseradish peroxidase (HRP) conjugated secondary antibody. Blots were visualized by autoradiography using the Enhanced Chemiluminescence Detection System (GE Healthcare) according to manufacturer's instructions. For all gels 3-actin was used as a protein loading control."}, "C2C12 cells": {"tested_on": "C2C12 cells", "assay": "Viability of C2C12 cells visualized by light microscopy", "type": "cell-based, mouse", "details": "24 h"}, "[3]": {"tested_on": "IGF1R and TGFbeta expressing ovarian cancer cell lines", "assay": "Apoptosis in ovarian cancer cell lines", "type": "cell-based", "protocol": "Cell cycle and apoptosis assessment. Cell cycle and apoptosis were assessed by flow cytometry after single staining with propidium iodide (PI, BD Pharmingen) or double staining with AnnexinV-FITC (BD Pharmingen) and 7AAD (BD Pharmingen), respectively. Specifically, for cell cycle analysis, cells were washed twice with cold PBS and fixed in 70% ethanol overnight at 4° C. Fixed cells were collected at 1800 rpm for 10 min and stained with PBS containing PI and DNase-free RNase A (Sigma-Aldrich) for 1 h at room temperature in the dark. DNA content was measured by BD LSRII flow cytometer and cell further analyzed using program of cell cycle analysis in FloJo (Ashland, OR). The chicken erythrocyte nuclei singlets (CEN, Biosure) were used as the reference. For apoptosis assessment, live cells were collected, washed twice with cold PBS, resuspended in Binding Buffer and stained with AnnexinV-FITC and 7AAD for 15 min at room temperature in the dark. Signals from FL1 and FL3 channels were collected by MACSQuant analyzer and further analyzed using FloJo. Early apoptosis was defined as AnnexinV+/7AAD−, and late apoptosis was observed as AnnexinV+/7AAD+."}, "[4]": {"tested_on": "EGFR overexpressing triple negative breast cancer cells", "assay": "Apoptosis (Annexin V / 7AAD, cleaved PARP) in triple negative breast cancer cells", "type": "cell-based", "protocol": "The Grp94 inhibitors of the disclosure can be used to treat patients with EGFR overexpressing triple negative breast cancer. As shown in FIGS. 13a-c, EGFR overexpressing triple negative breast cancer cells are sensitive to the selective Grp94 inhibitor PU-WS13. The sensitivity of the EGFR overexpressing triple negative breast cancer cells was tested for the presence of apoptotic cells by Annexin V staining (13a, 13b) and by immunoblotting for the presence of cleaved PARP (13c). […] The Grp94 inhibitors of the disclosure can be used to treat patients with EGFR overexpressing pancreatic cancer. […]\nCell fractionation and immunoblotting. […] Protein concentrations were determined using BCA kit (Pierce) according to the manufacturer's instructions. […]\nCell cycle and apoptosis assessment. Cell cycle and apoptosis were assessed by flow cytometry after single staining with propidium iodide (PI, BD Pharmingen) or double staining with AnnexinV-FITC (BD Pharmingen) and 7AAD (BD Pharmingen), respectively. […] DNA content was measured by BD LSRII flow cytometer and cell further analyzed using program of cell cycle analysis in FloJo (Ashland, OR). […] Signals from FL1 and FL3 channels were collected by MACSQuant analyzer and further analyzed using FloJo. […]"}}, "note": "“Also recorded” adds a separate entry of the source."}
{"smiles": "CC(C)NCCCn1c(Sc2cc(Cl)cc(Cl)c2)nc2c(N)ncnc21", "note": "[PU-WS13]", "values": [{"measurement": "effect on the tested 97 kinases", "setting": "97 kinases", "result": "no significant effect"}, {"measurement": "sensitivity to Grp94 inhibition", "setting": "NCI-N87 cells", "result": "highly susceptible"}, {"measurement": "accumulation of cells in sub-G1 phase, time first observed post-treatment", "setting": "[1]", "result": "1 to 2", "unit": "h"}, {"measurement": "cells exhibiting markers of early- and late-stage apoptosis", "setting": "[1]", "result": "substantial increase"}, {"measurement": "cleavage of PARP", "setting": "[1]", "result": "cleavage of PARP"}, {"measurement": "feed-back heat shock response (Hsp70 induction)", "setting": "[1]", "result": "little to no Hsp70 induction"}, {"measurement": "sensitivity to Grp94 inhibition", "setting": "OE19 cells", "result": "highly susceptible"}, {"measurement": "toxicity to HEK293 cells", "setting": "HEK293 cells", "result": "not toxic"}, {"measurement": "AKT degradation", "setting": "[2]", "result": "lack of Hsp70 induction and AKT degradation; also recorded: has no effect"}, {"measurement": "Hsp70 induction", "setting": "[2]", "result": "lack of Hsp70 induction; also recorded: has no effect"}, {"measurement": "toxicity to C2C12 cells", "setting": "C2C12 cells", "result": "not toxic"}, {"measurement": "induction of apoptosis", "setting": "[3]", "result": "induces apoptosis"}, {"measurement": "sensitivity (apoptosis, cleaved PARP)", "setting": "[4]", "result": "sensitive"}]}
